Data from patent publication US10253002B2, “Compounds and methods of treating infections” (Neoculi Pty Ltd., priority 2013, dated 2019).
≈ marks a conversion by molar mass, not a printed value. Read-outs that look alike come from different tables or passages of the source.

Columns and labels:
MRSA = experiment: Broth microdilution MIC, Example 7 (NCL812 and analogues); assay type: cell-based, Staphylococcus aureus; conditions: for activity against MRSA among analogues: MIC testing, two MRSA strains; for MRSA: bioassay ranking
Method in brief: (§1)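 Isolates were tested in duplicate, with a third run if replicates differed by more than one two-fold dilution; inoculum purity was checked on sheep blood agar.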

[1] = Bioassay ranking of the analogues tested; conditions: M + R (MRSA and VRE combined)
VRE = experiment: Broth microdilution MIC, Example 7 (NCL812 and analogues); assay type: cell-based, Enterococcus spp.; conditions: for activity against VRE among analogues: MIC testing, two VRE strains; for VRE: bioassay ranking
Method in brief: as §1

[2] = system: S. aureus isolates (HA-MRSA, CA-MRSA, methicillin-susceptible staphylococci); experiment: Kirby-Bauer disc diffusion resistotyping, Example 4; assay type: cell-based, Staphylococcus aureus
Method: Antibiotic-susceptibility profiling of the isolate collection was undertaken using Kirby-Bauer disc diffusion, as recommended by the Clinical and Laboratory Standards Institute (CLSI) on Mueller-Hinton agar. Isolates were grown overnight on SBA at 37° C. Colonies were suspended in physiological saline. Turbidity was adjusted to a 0.5 McFarland standard and suspensions were spread over the medium. Antibiotic discs according to Table 9 below were transferred onto the inoculated medium and analysed after 24 h incubation at 37° C.

S. pneumoniae isolates = experiment: Disk diffusion susceptibility (CLSI/EUCAST), Example 5; assay type: cell-based, Streptococcus pneumoniae
Method: Isolate susceptibility to 12 different antimicrobials (Table 16) was determined by CLSI and European Committee on Antimicrobial Susceptibility Testing (EUCAST) methods. Antimicrobials were selected based upon the CLSI and EUCAST guidelines. Standardised bacterial suspensions were spread onto MHSBA using a sterile cotton swab. Bacterial suspensions from of Streptococcus pneumoniae were standardised to an OD6O0 between 0.08 and 0.1 using a spectrophotometer and then diluted 1:20. Bacterial colonies were taken from an O/N horse blood agar plate. To ensure the purity of the 1:20 bacterial suspension, 50 μL was spread plated onto horse blood agar and incubated O/N at 37° C. with 5% CO2. The CFU was calculated and compared to the initial plate counts. Antibiotic disks (Purchased from Sigma Aldrich) were placed using a disk dispenser (Purchased from Oxoid) according to CLSI standards. MHSBA plates were incubated for 16 h-24 h at 37° C. in 5% CO2. Zones of complete inhibition were measured in triplicate to the nearest millimeter using a ruler on natural light-reflected growth, and the mode was represented as the diameter for each isolate. Pneumococcal isolates were categorised as sensitive, intermediate (I) or resistant (R) by CLSI standards and quality control (QC) ranges (Table 16).

[3] = system: Staphylococcus pseudintermedius isolates (MSSP and MRSP); experiment: Disk diffusion and Epsilometer susceptibility testing, Example 6; assay type: cell-based; conditions: for MIC: Staphylococcus pseudintermedius

CC(C)c1ccc(/C=N/NC(=N)N/N=C/c2ccc(C(C)C)cc2)cc1.Cl [NCL120]
activity against MRSA among analogues (MRSA): greatest activity | MRSA (MRSA): 7 µg/mL | M + R [1]: 6 µg/mL | activity against VRE among analogues (VRE): greatest activity | VRE (VRE): 5 µg/mL

CCCc1ccc(C=NNC(=N)NN=Cc2ccc(CCC)cc2)cc1.Cl [NCL121]
activity against MRSA among analogues (MRSA): greatest activity | MRSA (MRSA): 32 µg/mL | M + R [1]: 30 µg/mL | activity against VRE among analogues (VRE): greatest activity | VRE (VRE): 28 µg/mL

Cc1onc(-c2ccccc2)c1C(=O)N[C@@H]1C(=O)N2[C@@H]1SC(C)(C)[C@@H]2C(=O)O [Oxacillin]
isolates resistant (Kirby-Bauer disc diffusion) ([2]; CA-MRSA (n = 10)): 10.00% | isolates resistant (Kirby-Bauer disc diffusion) ([2]; HA-MRSA (n = 10)): 80.00% | isolates resistant (Kirby-Bauer disc diffusion) ([2]; Methicillin-susceptible staphylococci (n = 10)): 0.00% | resistant isolates, number (percentage) ([2]; Unclassified (n = 2), Overall): 2 (100%) | Total isolates resistant (Kirby-Bauer disc diffusion) ([2]; all isolates (n = 30)): 30.00% | resistant isolates, number (percentage) ([2]; mec gene complex A (n = 4), Overall): 4 (100%) | resistant isolates, number (percentage) ([2]; mec gene complex A (n = 4), SCCmec type II): 3 (100%) | resistant isolates, number (percentage) ([2]; mec gene complex A (n = 4), SCCmec type III): 1 (100%) | resistant isolates, number (percentage) ([2]; mec gene complex B (n = 10), Overall): 2 (20%) | resistant isolates, number (percentage) ([2]; mec gene complex B (n = 10), SCCmec type I): 1 (50%) | resistant isolates, number (percentage) ([2]; mec gene complex B (n = 10), SCCmec type IV): 1 (12.5%) | resistant isolates, number (percentage) ([2]; mec gene complex C2 (n = 4), Overall): 1 (25%) | resistant isolates, number (percentage) ([2]; mec gene complex C2 (n = 4), SCCmec type V): 1 (25%) | disk diffusion zone diameter (S. pneumoniae isolates; A66.1): 28 mm | disk diffusion zone diameter (S. pneumoniae isolates; D39): 26 mm | disk diffusion zone diameter (S. pneumoniae isolates; EF3030): 18 mm | disk diffusion zone diameter (S. pneumoniae isolates; L82016): 29 mm | disk diffusion zone diameter (S. pneumoniae isolates; P9): 26 mm | disk diffusion zone diameter (S. pneumoniae isolates; P21): 28 mm | disk diffusion zone diameter (S. pneumoniae isolates; TIGR4): 26 mm | disk diffusion zone diameter (S. pneumoniae isolates; WCH16): 30 mm | disk diffusion zone diameter (S. pneumoniae isolates; WCH43): 26 mm | disk diffusion zone diameter (S. pneumoniae isolates; WCH46): 27 mm | disk diffusion zone diameter (S. pneumoniae isolates; WCH57): 32 mm | disk diffusion zone diameter (S. pneumoniae isolates; WCH77): 28 mm | disk diffusion zone diameter (S. pneumoniae isolates; WCH86): 34 mm | disk diffusion zone diameter (S. pneumoniae isolates; WCH89): 29 mm | disk diffusion zone diameter (S. pneumoniae isolates; WCH92): 25 mm | disk diffusion zone diameter (S. pneumoniae isolates; WCH137): 29 mm | disk diffusion zone diameter (S. pneumoniae isolates; WCH158): 28 mm | disk diffusion zone diameter (S. pneumoniae isolates; WCH184): 11 mm | disk diffusion zone diameter (S. pneumoniae isolates; WCH211): 25 mm | disk diffusion zone diameter (S. pneumoniae isolates; WU2): 28 mm | disc diffusion zone, all MRSP isolates resistant ([3]; 13 MRSP isolates): ≤ 17 mm | MIC ([3]; 13 MRSP isolates, read-out: E-test MIC, all MRSP isolates resistant): ≥ 0.5 µg/mL | MIC ([3]; isolate S1P1, read-out: Etest MIC): > 256 µg/mL | MIC ([3]; isolate S2P2, read-out: Etest MIC): > 256 µg/mL | MIC ([3]; isolate S3P3, read-out: Etest MIC): > 256 µg/mL | MIC ([3]; isolate S4P4, read-out: Etest MIC): 2 µg/mL (≈ 4.98 µM) | MIC ([3]; isolate S5P5, read-out: Etest MIC): 4 µg/mL (≈ 9.96 µM) | MIC ([3]; isolate S6P6, read-out: Etest MIC): > 256 µg/mL | MIC ([3]; isolate S7P7, read-out: Etest MIC): > 256 µg/mL | MIC ([3]; isolate S8P8, read-out: Etest MIC): > 256 µg/mL | MIC ([3]; isolate S9P9, read-out: Etest MIC): 4 µg/mL (≈ 9.96 µM) | MIC ([3]; isolate S10P10, read-out: Etest MIC): > 256 µg/mL | MIC ([3]; isolate S11P11, read-out: Etest MIC): > 256 µg/mL | MIC ([3]; isolate S12P12, read-out: Etest MIC): 1.5 µg/mL (≈ 3.74 µM) | MIC ([3]; isolate S13P13, read-out: Etest MIC): 0.125 µg/mL (≈ 0.311 µM) | MIC ([3]; isolate S14P14, read-out: Etest MIC): 0.25 µg/mL (≈ 0.623 µM) | MIC ([3]; isolate S15P15, read-out: Etest MIC): 0.25 µg/mL (≈ 0.623 µM) | MIC ([3]; isolate S16P16, read-out: Etest MIC): 0.19 µg/mL (≈ 0.473 µM) | MIC ([3]; isolate S17P17, read-out: Etest MIC): 0.25 µg/mL (≈ 0.623 µM) | MIC ([3]; isolate S18P18, read-out: Etest MIC): 0.25 µg/mL (≈ 0.623 µM) | MIC ([3]; isolate S19P19, read-out: Etest MIC): 0.25 µg/mL (≈ 0.623 µM) | MIC ([3]; isolate S20P20, read-out: Etest MIC): 0.25 µg/mL (≈ 0.623 µM) | MIC ([3]; isolate S21P21, read-out: Etest MIC): 0.125 µg/mL (≈ 0.311 µM) | MIC ([3]; isolate S22P22, read-out: Etest MIC): 0.25 µg/mL (≈ 0.623 µM) | MIC ([3]; isolate S23P23, read-out: Etest MIC): 1.5 µg/mL (≈ 3.74 µM) | ZD ([3]; isolate S1P1): 0 mm | ZD, Adl ([3]; isolate S1P1): 0 mm | ZD ([3]; isolate S2P2): 0 mm | ZD, Adl ([3]; isolate S2P2): 0 mm | ZD ([3]; isolate S3P3): 0 mm | ZD, Adl ([3]; isolate S3P3): 0 mm | ZD ([3]; isolate S4P4): 0 mm | ZD, Adl ([3]; isolate S4P4): 0 mm | ZD ([3]; isolate S5P5): 0 mm | ZD, Adl ([3]; isolate S5P5): 0 mm | ZD ([3]; isolate S6P6): 0 mm | ZD, Adl ([3]; isolate S6P6): 0 mm | ZD ([3]; isolate S7P7): 0 mm | ZD, Adl ([3]; isolate S7P7): 0 mm | ZD ([3]; isolate S8P8): 0 mm | ZD, Adl ([3]; isolate S8P8): 0 mm | ZD ([3]; isolate S9P9): 0 mm | ZD, Adl ([3]; isolate S9P9): 0 mm | ZD ([3]; isolate S10P10): 0 mm | ZD, Adl ([3]; isolate S10P10): 0 mm | ZD ([3]; isolate S11P11): 0 mm | ZD, Adl ([3]; isolate S11P11): 0 mm | ZD ([3]; isolate S12P12): 13 mm | ZD, Adl ([3]; isolate S12P12): 16 mm | ZD ([3]; isolate S13P13): 26 mm | ZD, Adl ([3]; isolate S13P13): 36 mm | ZD ([3]; isolate S14P14): 22 mm | ZD, Adl ([3]; isolate S14P14): 29 mm | ZD ([3]; isolate S15P15): 22 mm | ZD, Adl ([3]; isolate S15P15): 25 mm | ZD ([3]; isolate S16P16): 26 mm | ZD, Adl ([3]; isolate S16P16): 34 mm | ZD ([3]; isolate S17P17): 22 mm | ZD, Adl ([3]; isolate S17P17): 26 mm | ZD ([3]; isolate S18P18): 22 mm | ZD, Adl ([3]; isolate S18P18): 30 mm | ZD ([3]; isolate S19P19): 25 mm | ZD, Adl ([3]; isolate S19P19): 32 mm | ZD ([3]; isolate S20P20): 23 mm | ZD, Adl ([3]; isolate S20P20): 30 mm | ZD ([3]; isolate S21P21): 27 mm | ZD, Adl ([3]; isolate S21P21): 37 mm | ZD ([3]; isolate S22P22): 21 mm | ZD, Adl ([3]; isolate S22P22): 26 mm | ZD ([3]; isolate S23P23): 13 mm | ZD, Adl ([3]; isolate S23P23): 14 mm
